From paper PMC3041239 (Journal of Medicinal Chemistry, 2011)
Marks after values point to notes of the source that are not given here.

Experiments:
rats [1] = details: rat, cited from earlier work
[2] = sc administration; cited from earlier work
rats [3] = experiment: Tail-flick test in the rat after sc administration; type: in vivo; details: pair 15 vs 16
human μ opioid receptor = human μ opioid receptor (Homo sapiens, UniProt P35372); type: biochemical
μ opioid receptor = details: first value of μ:δ:κ; cited from earlier work
δ opioid receptor = details: second value of μ:δ:κ; cited from earlier work
κ opioid receptor = details: third value of μ:δ:κ; cited from earlier work

Chain of human μ opioid receptor (P35372 whole entry): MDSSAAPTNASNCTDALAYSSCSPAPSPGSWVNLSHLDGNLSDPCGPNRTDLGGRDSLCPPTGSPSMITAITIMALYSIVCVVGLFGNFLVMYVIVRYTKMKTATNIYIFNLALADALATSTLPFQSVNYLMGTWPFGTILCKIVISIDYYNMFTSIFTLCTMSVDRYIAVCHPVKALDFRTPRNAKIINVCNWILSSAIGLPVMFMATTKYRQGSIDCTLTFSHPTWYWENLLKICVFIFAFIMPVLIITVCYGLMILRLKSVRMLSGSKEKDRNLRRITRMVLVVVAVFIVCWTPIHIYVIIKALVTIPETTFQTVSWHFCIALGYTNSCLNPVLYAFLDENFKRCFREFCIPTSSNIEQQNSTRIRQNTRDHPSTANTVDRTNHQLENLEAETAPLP

Row | Compound | ED50 (nmol/kg, sc), time after drug administration 0.5 h (rats [1]) [nmol/kg] | ED50 (nmol/kg, sc), time after drug administration 1 h (rats [1]) | ED50 (nmol/kg, sc), time after drug administration 2 h (rats [1]) [nmol/kg] | functional character at the μ receptor (human μ opioid receptor) | further results
1 | CO[C@@]12CC[C@H](NCC(=O)O)[C@@H]3Oc4c(O)ccc5c4[C@@]31CCN(C)[C@@H]2C5 [Compound 9] | 137 | 58.5 ^c nmol/kg | 143 | – | ED50 (nmol/kg, sc), time after drug administration 3 h (rats [1]; 3 h): 437 nmol/kg
2 | CO[C@@]12CC[C@@H](NCC(=O)O)[C@@H]3Oc4c(O)ccc5c4[C@@]31CCN(C)[C@@H]2C5 [Compound 10, 2-[(4,5α-Epoxy-3-hydroxy-14β-methoxy-17-methylmorphinan-6β-yl)amino] acetic Acid] | 50.8 | 29.0 ^c nmol/kg | 43.3 | – | antinociceptive potency lower than that of 14-O-methyloxymorphone (1) [2]: 2 fold
3 | CC(C)(C)OC(=O)CN[C@@H]1CC[C@@]2(OCCCc3ccccc3)[C@H]3Cc4ccc(O)c5c4[C@@]2(CCN3CC2CC2)[C@H]1O5 [Compound 16] | – | – | – | – | difference in the potency between α and β epimers (rats [3]): 13 fold
4 | Cl.Cl.O=C(O)CN[C@H]1CC[C@@]2(OCCCc3ccccc3)[C@H]3Cc4ccc(O)c5c4[C@@]2(CCN3CC2CC2)[C@H]1O5 [Compound 17, [[17-Cyclopropylmethyl-4,5α-epoxy-3-hydroxy-14β-[(3-phenylpropyl)oxy]morphinan-6α-yl]amino]acetic Acid Dihydrochloride] | – | – | – | highly potent partial agonists | –
5 | Cl.Cl.O=C(O)CN[C@@H]1CC[C@@]2(OCCCc3ccccc3)[C@H]3Cc4ccc(O)c5c4[C@@]2(CCN3CC2CC2)[C@H]1O5 [Compound 18, [[17-Cyclopropylmethyl-4,5α-epoxy-3-hydroxy-14β-[(3-phenylpropyl)oxy]morphinan-6β-yl]amino]acetic Acid Dihydrochloride] | – | – | – | highly potent partial agonists | –
6 | O=C1CC[C@@]2(O)[C@H]3Cc4ccc(O)c5c4[C@@]2(CCN3CC2CC2)[C@H]1O5 [naltrexone] | – | – | – | – | binding affinity μ (μ opioid receptor): 0.20; binding affinity δ (δ opioid receptor): 8.70; binding affinity κ (κ opioid receptor): 0.40
